Results reported in patent US9440964B2, “Pesticidal compositions and processes related thereto” (Dow AgroSciences LLC, priority 2011, dated 2016).

Legend:
Type in all cases: in vivo
BAW (Spodoptera exigua) = test: Bioassay on Beet Armyworm (BAW), 128-well diet tray; settings: Spodoptera exigua, 168 h; percent mortality, second instar larvae, 50 μg/cm^2 on diet, five to seven days; read-out: Rating BAW
Protocol: (§1) Certain molecules disclosed in this document were tested against BAW and CEW using procedures described in the following examples. In the reporting of the results, the “BAW & CEW Rating Table” was used (See Table Section).
Bioassays on BAW (Spodoptera exigua)
(§2) Trays were covered with a clear self-adhesive cover and held at 25° C., 14:10 light-dark for five to seven days. Percent mortality was recorded for the larvae in each well; activity in the eight wells was then averaged. The results are indicated in the table entitled “Table ABC: Biological Results” (See Table Section).

CEW (Helicoverpa zea) = test: Bioassay on Corn Earworm (CEW), 128-well diet tray; settings: Helicoverpa zea, 168 h, percent mortality, second instar larvae, five to seven days; for pest or weed control at 50 µg/cm2: 50 μg/cm^2 on diet, read-out: Rating CEW; for pest or weed control at 0.5 µg/cm2: 0.5 μg/cm^2 on diet, read-out: Rating CEW (*Tested at 0.5 μg/cm^2)
Protocol: as §1
Bioassays on CEW (Helicoverpa zea)
as §2

[1] = tested on: Yellow Fever Mosquito YFM (Aedes aegypti); test: Bioassay on Yellow Fever Mosquito (YFM) larvae, 96-well plate; settings: mortality of about 1 day-old larvae, scored after 3 days
Protocol: Certain molecules disclosed in this document were tested against YFM using procedures described in the following paragraph. In the reporting of the results, the “YFM Rating Table” was used (See Table Section).
Master plates containing 400 μg of a molecule dissolved in 100 μL of dimethyl sulfoxide (DMSO) (equivalent to a 4000 ppm solution) are used. A master plate of assembled molecules contains 15 μL per well. To this plate, 135 μL of a 90:10 water:acetone mixture is added to each well. A robot (Biomek® NXP Laboratory Automation Workstation) is programmed to dispense 15 μL aspirations from the master plate into an empty 96-well shallow plate (“daughter” plate). There are 6 reps (“daughter” plates) created per master. The created daughter plates are then immediately infested with YFM larvae.
The day before plates are to be treated, mosquito eggs are placed in Millipore water containing liver powder to begin hatching (4 g. into 400 ml). After the daughter plates are created using the robot, they are infested with 220 μL of the liver powder/larval mosquito mixture (about 1 day-old larvae). After plates are infested with mosquito larvae, a non-evaporative lid is used to cover the plate to reduce drying. Plates are held at room temperature for 3 days prior to grading. After 3 days, each well is observed and scored based on mortality.
The results are indicated in the table entitled “Table ABC: Biological Results” (See Table Section).

| SMILES | pest or weed control at 50 µg/cm2 (BAW (Spodoptera exigua)) | pest or weed control at 50 µg/cm2 (CEW (Helicoverpa zea)) | Rating YFM [1] | pest or weed control at 0.5 µg/cm2 (CEW (Helicoverpa zea)) |
| --- | --- | --- | --- | --- |
| Cc1cccc(C)c1N/C(=N/C(=O)Nc1ccc(-c2ncn(-c3ccc(C(F)(F)F)cc3)n2)cc1)SCOC(=O)C(C)C [Molecule A3, (E)-(N′-(2,6-Dimethylphenyl)-N-(4-(1-(4-(trifluoromethyl)phenyl)-1H-1,2,4-triazol-3-yl)phenylcarbamoyl)carbamimidoylthio) methyl isobutyrate] | 50 to 100% | 50 to 100% | A (80-100) | – |
| CCC(C)c1ccccc1N1C(=O)CS/C1=N\C(=O)Nc1ccc(-c2ncn(-c3ccc(OC(F)(F)F)cc3)n2)cc1 (stereo not drawn) [Molecule A18, (Z)-1-(3-(2-(sec-butyl)phenyl)-4-oxothiazolidin-2-ylidene)-3-(4-(1-(4-(trifluoromethoxy)phenyl)-1H-1,2,4-triazol-3-yl)phenyl)urea] | 50 to 100% | 50 to 100% | A (80-100) | – |
| COc1ccc(N/C(O)=C/C(=O)Nc2ccc(-c3ncn(-c4ccc(OC(F)(F)F)cc4)n3)cc2)c(C(C)C)c1 [Molecule A34, (Z)-3-hydroxy-3-(2-isopropyl-4-methoxyphenylamino)-N-(4-(1-(4-(trifluoromethoxy)phenyl)-1H-1,2,4-triazol-3-yl)phenyl)acrylamide] | 50 to 100% | 50 to 100% | A (80-100) | – |
| CCc1ccccc1N1C(=O)CS/C1=N\C(=O)Nc1ccc(-c2ncn(-c3ccc(OC(F)(F)F)cc3)n2)cc1 [Molecule A35] | 50 to 100% | 50 to 100% | A (80-100) | – |
| COc1ccc(N/C(=N\C(=O)Nc2ccc(-c3ncn(-c4ccc(OC(F)(F)F)cc4)n3)cc2)SCOC(=O)C(C)C)cc1 [Molecule A62] | 50 to 100% | 50 to 100% | A (80-100) | – |
| Cc1ccccc1N1C(=O)CS/C1=N\C(=O)Nc1ccc(-c2ncn(-c3ccc(OC(F)(F)F)cc3)n2)cc1 [Molecule A65] | 50 to 100% | – | A (80-100) | 50 to 100% |
| CCCc1ccccc1N1C(=O)CS/C1=N\C(=O)Nc1ccc(-c2ncn(-c3ccc(OC(F)(F)F)cc3)n2)cc1 [Molecule A69] | 50 to 100% | – | A (80-100) | 50 to 100% |
| CC(C)c1ccc(F)cc1N1C(=O)CS/C1=N\C(=O)Nc1ccc(-c2ncn(-c3ccc(OC(F)(F)F)cc3)n2)cc1 [Molecule A86] | 50 to 100% | – | – | 50 to 100% |
| Cc1ccc(C(C)C)c(N2C(=O)CS/C2=N\C(=O)Nc2ccc(-c3ncn(-c4ccc(OC(F)(F)F)cc4)n3)cc2)c1 [Molecule A87] | 50 to 100% | – | – | 50 to 100% |
| Cc1ccc(N2C(=O)CS/C2=N\C(=O)Nc2ccc(-c3ncn(-c4ccc(OC(F)(F)F)cc4)n3)cc2)c(C(C)C)c1 [Molecule A88] | 50 to 100% | – | – | 50 to 100% |
| Cc1ccc(F)c(N/C(S)=N/C(=O)Nc2ccc(-c3ncn(-c4ccc(OC(F)(F)F)cc4)n3)cc2)c1 [Molecule A89] | 50 to 100% | – | – | 50 to 100% |
| O=C(/N=C1\SCC(=O)N1c1ccc(Cl)cc1Cl)Nc1ccc(-c2ncn(-c3ccc(OC(F)(F)F)cc3)n2)cc1 [Molecule A92] | 50 to 100% | – | – | 50 to 100% |
| Cc1c(F)cccc1N1C(=O)CS/C1=N\C(=O)Nc1ccc(-c2ncn(-c3ccc(OC(F)(F)F)cc3)n2)cc1 [Molecule A93] | 50 to 100% | – | – | 50 to 100% |
| Cc1ccc(F)c(N2C(=O)CS/C2=N\C(=O)Nc2ccc(-c3ncn(-c4ccc(OC(F)(F)F)cc4)n3)cc2)c1 [Molecule A94] | 50 to 100% | – | – | 50 to 100% |
| CCc1cccc(C)c1N/C(S)=N/C(=O)Nc1ccc(-c2ncn(-c3ccc(OC(F)(F)F)cc3)n2)cc1 [Molecule A97] | 50 to 100% | – | – | 50 to 100% |
| COc1ccc(N/C(S)=N/C(=O)Nc2ccc(-c3ncn(-c4ccc(OC(F)(F)F)cc4)n3)cc2)c(C)c1 [Molecule A98] | 50 to 100% | – | – | 50 to 100% |

| SMILES | pest or weed control at 50 µg/cm2 (BAW (Spodoptera exigua)) | pest or weed control at 50 µg/cm2 (CEW (Helicoverpa zea)) | Rating YFM [1] | pest or weed control at 0.5 µg/cm2 (CEW (Helicoverpa zea)) |
| --- | --- | --- | --- | --- |
| Cc1cc(C)cc(N/C(S)=N/C(=O)Nc2ccc(-c3ncn(-c4ccc(OC(F)(F)F)cc4)n3)cc2)c1 [Molecule A100] | 50 to 100% | – | – | 50 to 100% |
| O=C(/N=C(\S)Nc1ccccc1Cc1ccccc1)Nc1ccc(-c2ncn(-c3ccc(OC(F)(F)F)cc3)n2)cc1 [Molecule A101] | 50 to 100% | – | – | 50 to 100% |
| CCc1cccc(C)c1N1C(=O)CS/C1=N\C(=O)Nc1ccc(-c2ncn(-c3ccc(OC(F)(F)F)cc3)n2)cc1 [Molecule A103] | 50 to 100% | – | – | 50 to 100% |
| O=C(/N=C1\SCC(=O)N1c1ccccc1Cc1ccccc1)Nc1ccc(-c2ncn(-c3ccc(OC(F)(F)F)cc3)n2)cc1 [Molecule A105] | 50 to 100% | – | – | 50 to 100% |
| Cc1cccc(N/C(S)=N/C(=O)Nc2ccc(-c3ncn(-c4ccc(OC(F)(F)F)cc4)n3)cc2)c1C(C)C [Molecule A106] | 50 to 100% | – | – | 50 to 100% |
| CC(C)c1c(F)cccc1N/C(S)=N/C(=O)Nc1ccc(-c2ncn(-c3ccc(OC(F)(F)F)cc3)n2)cc1 [Molecule A107] | 50 to 100% | – | – | 50 to 100% |
| Cc1cccc(N2C(=O)CS/C2=N\C(=O)Nc2ccc(-c3ncn(-c4ccc(OC(F)(F)F)cc4)n3)cc2)c1C(C)C [Molecule A108] | 50 to 100% | – | – | 50 to 100% |
| CC(C)c1c(F)cccc1N1C(=O)CS/C1=N\C(=O)Nc1ccc(-c2ncn(-c3ccc(OC(F)(F)F)cc3)n2)cc1 [Molecule A109] | 50 to 100% | – | – | 50 to 100% |
| COc1ccc(Cl)cc1N1C(=O)CS/C1=N\C(=O)Nc1ccc(-c2ncn(-c3ccc(OC(F)(F)F)cc3)n2)cc1 [Molecule A111] | 50 to 100% | – | – | 50 to 100% |
| CC(C)c1ccccc1N/C(S)=N/C(=O)Nc1ccc(-c2ccn(-c3ccc(OC(F)(F)F)cc3)n2)cc1 [Molecule A114, N-[[(2-isopropyllphenyl)amino]thioxomethyl]-N′-((4-(1-(4-(trifluoromethoxy)phenyl)-1H-pyrazol-3-yl)phenyl))urea] | 50 to 100% | – | – | 50 to 100% |
| CC(C)c1ccccc1N1C(=O)CS/C1=N\C(=O)Nc1ccc(-c2ncn(-c3ccc(OC(F)(F)C(F)(F)F)cc3)n2)cc1 [Molecule A115] | 50 to 100% | – | – | 50 to 100% |
| CC(C)c1cc(F)ccc1N/C(S)=N/C(=O)Nc1ccc(-c2ncn(-c3ccc(OC(F)(F)F)cc3)n2)cc1 [Molecule A116] | 50 to 100% | – | – | 50 to 100% |
| CC(C)c1cc(F)ccc1N1C(=O)CS/C1=N\C(=O)Nc1ccc(-c2ncn(-c3ccc(OC(F)(F)F)cc3)n2)cc1 [Molecule A117] | 50 to 100% | – | – | 50 to 100% |
| CC(C)n1nccc1N/C(S)=N/C(=O)Nc1ccc(-c2ncn(-c3ccc(OC(F)(F)F)cc3)n2)cc1 [Molecule A119] | 50 to 100% | – | – | 0 to 50% |
| CC(C)n1nccc1N1C(=O)CS/C1=N\C(=O)Nc1ccc(-c2ncn(-c3ccc(OC(F)(F)F)cc3)n2)cc1 [Molecule A121] | 50 to 100% | – | – | 50 to 100% |
